Experimental data reported in US10160948B2, “Pluripotent embryonic-like stem cells, compositions, methods and uses thereof” (ABT HOLDING COMPANY, priority 1999, dated 2018).
Marks after values point to notes of the source that are not given here.

Columns and labels:
progenitor stem cells = experiment: Proliferation and phenotypic responses to bioactive factors: progenitor cells; assay type: cell-based; conditions: for Phenotypic Expression, Progenitor: presence and approximate distribution of differentiated phenotypes within the culture wells
Text: (§1) Having access to mixed populations of progenitor stem cells, progenitor stem cell clones, and pluripotent stem cell clones permits one to address the influence of various bioactive factors (e.g. recombinant growth factors, purified compounds, and novel inductive factors) on the growth characteristics and phenotypic expression of these stem cells.
(§2) Cryopreserved cells are thawed and plated in MSC-1 at 5, 10, or 20×10^3 cells per well of gelatinized 24-well plates following the standard protocol. Twenty-four hours after initial plating the medium is changed to testing medium (TM) 1 to 6 (TM-1, TM-2, TM-3, TM-4, TM-5, or TM-6). TM-1 to TM-4 consist of Ultraculture (cat. no. 12-725B, lot. nos. OMO455 [TM-1], 1M1724 [TM-2], 2M0420 [TM-3], or 2M0274 [TM-4], Bio-Whittaker, Walkersville, Md.), medium (EMEM or Opti-MEM 0.01 mM β-mercaptoethanol), and 1% (v/v) antibiotic-antimycotic, pH 7.4. TM-5 consists of 98% (v/v) medium, 1% (v/v) HS, and 1% (v/v) antibiotic-antimycotic, pH 7.4. TM-6 consists of 98.5% (v/v) medium, 0.5% (v/v) HS, and 1% (v/v) antibiotic-antimycotic, pH 7.4. […] Four testing media (TM#'s 1-4), each containing various concentrations of Ultraculture, were used as. […] The four Ultraculture-based testing media were: TM-1=15% (v/v) Ultraculture (Lot no. OMO455): 84% (v/v) medium: 1% (v/v) antibiotics; TM-2=15% (v/v) Ultraculture (Lot no. 1M1724): 84% (v/v) medium: 1% (v/v) antibiotics; TM-3=50% (v/v) Ultraculture (Lot no. 2M0420): 49% (v/v) medium: 1% (v/v) antibiotics; and TM-4=75% (v/v) Ultraculture (Lot no. 2M0274): 24% (v/v) medium: 1% (v/v) antibiotics. Pre-incubation for 24 hr in testing medium alone is used to wash out any potential synergistic components in the MSC-1 medium. Twenty-four hours later the testing medium is changed to one of the following. For controls, TM-1 to TM-6 alone is used. To identify clones of progenitor cells, the medium is replaced with TM-1 to TM-6 containing 2 μg/ml insulin (Sigma), an agent that accelerates the appearance of phenotypic expression markers in progenitor cells (TABLE 12). To identify clones of pluripotent cells, the medium is replaced with TM-1 to TM-6 containing 10^−10 to 10^−6 M dexamethasone (Sigma), a general non-specific lineage-inductive agent (TABLE 13). Control and treated cultures are propagated for an additional 30-45 days with medium changes every other day. Four culture wells are used per concentration per experiment. During the 0-45 day time period the cultures are examined subjectively for changes in morphological characteristics on a daily basis. Alterations in phenotypic expression are correlated with the days of treatment and associated insulin or dexamethasone concentrations. The experiment is then repeated utilizing these parameters to confirm objectively the phenotypic expression markers using established histological, functional/histochemical, ELICA/flow cytometry, and molecular assays (TABLE 13).

Swiss-3T3 cells = experiment: Dexamethasone treatment of Swiss-3T3 cells, assay of phenotypes; assay type: cell-based, mouse
Description: Frozen 3T3 cells were then thawed, cell viability was determined using 0.4% Typan Blue in PBS with a hemocytometer (Denhardt et al., 1991; Domin and Rozengurt, 1993), and the cells were plated in 24 well plates (Corning Glassworks, Corning, N.Y.), precoated with 1% gelatin at a density of 5000 cells/well. Cells were cultured in EMEM containing 10% horse serum and varying concentrations of dexamethasone (Sigma, Salom, Mo.). Four wells served as controls and received medium without dexamethasone. Four wells each received medium containing 10^−10 M, 10^−9 M, 10^−8 M, 10^−7 M, 10^−6 M dexamethasone. The medium was changed every other day and cultures were examined using phase contrast microscopy for the appearance of different phenotypes.
• Bone—The presence of calcified tissue was assayed by Von Kossa's staining of calcium phosphate as described by Humason. Briefly, the culture medium was removed, and the plates were rinsed twice with the DPBS. The cells were fixed with 0.5 ml of 10% formalin for 3-5 minutes, then rinsed four times with distilled water. One half of a milliliter of freshly prepared 2% silver nitrate solution was then added, and the cells were incubated in the dark for 10 minutes. After incubation, the silver nitrate solution was removed and the cells were rinsed five times with distilled water. Approximately 0.5 ml of distilled water was left on each well. The plate was exposed to bright light for 15 minutes against a white background to reflect light. The plates were again rinsed five times with distilled water and quickly dehydrated with 100% ethanol. The plates were made permanent with glycerin jelly. Confirmation of the presence of calcium phosphate was performed by pretreating selected cultures with 1% weight/volume [ethylene bis(oxyethylenenitrilo)]-tetraacetic acid, a specific calcium chelator, in Ca, MG-free buffer for 1 hour before incubation in the silver nitrate solution. • Muscle—The cells were stained with the MF-20 antibody to sarcomeric myosin (Hybridoma Bank, Ames Iowa) by means of a modified procedure of Young et. al., 1992b. […]

pluripotent stem cells = experiment: Proliferation and phenotypic responses to bioactive factors: pluripotent cells; assay type: cell-based; conditions: for Phenotypic Expression, Pluripotent: presence and approximate distribution of differentiated phenotypes within the culture wells
Text: as §1, §2

[1] = tested on: cells isolated from granulation tissue; experiment: Dexamethasone treatment of cells from granulation tissue (wound chambers), assays for phenotypes; assay type: cell-based, rat
cardiac myocytes = experiment: Beat rate of binucleated beating cells in dexamethasone-treated Swiss-3T3 cultures exposed to isoproterenol and propanolol; assay type: cell-based, mouse
Description: The wells were then washed six times with EMEM+10% horse serum and viewed on a Nikon Diaphot with fluorescent attachment. • Cardiac muscle—Cardiac myocytes were identified based on their large binucleated nuclei and their reactions to inotropic and chronotropic agents.

Compound | Proliferation, Progenitor: number of times the agent increased the DNA content per well versus its respective control (progenitor stem cells) | dexamethasone concentration at which binucleated beating cells appeared (Swiss-3T3 cells; 4 weeks in culture) | dexamethasone concentration at which myotubes appeared (Swiss-3T3 cells; 14 days) | dexamethasone concentration at which most adipocytes appeared (Swiss-3T3 cells; after two weeks treatment) | Proliferation, Pluripotent: number of times the agent increased the DNA content per well versus its respective control (pluripotent stem cells) | dexamethasone concentrations at which cartilage nodules appeared [1] | dexamethasone concentrations at which fibroblasts appeared ([1]; after 3 weeks) | dexamethasone concentrations at which adipocytes appeared ([1]; first appeared at 2 weeks) | beat rate (cardiac myocytes; cells treated with 10^−6 M isoproterenol) [beats per minute] | Beats per minute (cardiac myocytes; n = 5, 10−6M) | Phenotypic Expression, Progenitor (progenitor stem cells) | activity on pluripotent and progenitor stem cells, in words (pluripotent stem cells) | Phenotypic Expression, Pluripotent (pluripotent stem cells)
C[C@@H]1C[C@H]2[C@@H]3CCC4=CC(=O)C=C[C@]4(C)[C@@]3(F)[C@@H](O)C[C@]2(C)[C@@]1(O)C(=O)CO [Dex, dexamethasone] | − | 10^−7-10^−6 M | 10^−9-10^−6 M | 10^−8-10^−6 M | − | 10^−9-10^−6 M | 10^−9-10^−7 M | 10^−8-10^−6 M |  |  |  |  | 
CC(C)NCC(O)c1ccc(O)c(O)c1 (stereo not shown) [Isoproteronol, isoproterenol] |  |  |  |  |  |  |  |  | 85 | 87.4± * Beats per minute |  |  | 
IGF-I: insulin-like growth factor-I | 1 times |  |  |  | 1 times |  |  |  |  |  | All+++ | stimulated lineage-progression in all progenitor cells, but had no measurable effect on pluripotent cells | 0
IGF-II: insulin-like growth factor-II | 1 times |  |  |  | 1 times |  |  |  |  |  | All+++ | stimulated lineage-progression in all progenitor cells, but had no measurable effect on pluripotent cells | 0
PDGF-AA: Platelet-derived growth factor-AA | 16 times |  |  |  | 16^b times |  |  |  |  |  | All+ | stimulated proliferation in pluripotent cells and in all lineages of progenitor cells | 0
PDGF-BB: platelet-derived growth factor-BB | 19 times |  |  |  | 19 times |  |  |  |  |  | All+ | stimulated proliferation in pluripotent cells and in all lineages of progenitor cells | 0
TGF-β | − |  |  |  | −^c |  |  |  |  |  | F++ | stimulated lineage-progression in fibrogenic progenitor cells, inhibited lineage-progression in all other progenitor cells, and had no effect on pluripotent cells | 0
b-FGF: Basic-fibroblast growth factor | 1 times |  |  |  | 1 times |  |  |  |  |  | F++ | stimulated lineage-progression in fibrogenic progenitor cells, inhibited lineage-progression in all other progenitor cells, and had no effect on pluripotent cells | 0
